# Target: T1, Jak1 (Homo sapiens, UniProt P23458)
# T1 construct: using a recombinant purified GST-tagged catalytic domain for each enzyme; GST; purchased Invitrogen M4290
# Experiment: Jak Biochemical HTRF Assay (Jak1)
# Conditions: IC50 class, recombinant GST-tagged catalytic domain, read-out: Jak1 activity
# Source text: Compounds of formula I can be prepared according to the general procedures described in the Schemes and Examples herein, using appropriate materials. Representative compounds of the present invention are exemplified herein below. The compounds exemplified are not, however, to be construed as limiting the scope of the invention in any manner. The examples further illustrate details for the preparation of the compounds of the present invention. Those skilled in the art will readily understand that known variations of protecting groups, of reagents, as well as of the conditions and processes of the following preparative procedures, can be used to prepare these compounds. It is also understood that whenever a chemical reagent is not commercially available, such a chemical reagent can be readily prepared by those skilled in the art by either following or adapting known methods described in the literature or described herein. Chiral analogs were prepared via incorporation of chiral reagents or obtained after chiral chromatography separation of a racemically generated analog. All temperatures are degrees Celsius unless otherwise noted. Mass spectra (MS) were measured either by electrospray ion-mass spectroscopy (ESMS) or by atmospheric pressure chemical ionization mass spectroscopy (APCI). Jak1 data were obtained using the in vitro assay described below.
# Jak Biochemical HTRF Assay Protocol
# The ability of compounds to inhibit the activity of Jak1, Jak2, Jak3, and Tyk2 was measured using a recombinant purified GST-tagged catalytic domain for each enzyme (Invitrogen Jak1 #M4290, […]) in an HTRF format biochemical assay. The reactions employed a common peptide substrate, LCB-EQEDEPEGDYFEWLW-NH2 (in-house). The basic assay protocol is as follows: First, […] of diluted compounds in DMSO were dispensed into the wells of a dry 384-well Black plate (Greiner #781076) using a Labcyte Echo 555 acoustic dispenser. Subsequent reagent additions employed an Agilent Bravo. Next, 18 μL, of 1.11X enzyme and 1.11X substrate in 1X assay buffer (Invitrogen kinase buffer #PV3189, 2 mM DTT, 0.05% BSA) were added to the wells and shaken and then preincubated for 30 minutes at room temperature to allow compound binding to equilibrate. After equilibration, 2 μL of 10X ATP in 1X assay buffer was added to initiate the kinase reaction and the plates were shaken and then incubated at room temperature for 120 minutes. At the end of the incubation, 20 μL of 2X stop buffer (streptavidin-Dylight (Thermo #21845), Eu-tagged pY20 antibody (Perkin Elmer #AD0067), EDTA, HEPES, and Triton) was added to quench the reaction. Plates were shaken and centrifuged and then incubated 60 minutes at room temperature and then read on a Perkin Elmer Envision (λex=337 nm, λem=665 and 615 nm, TRF delay time=20 μs). HTRF signal=10,000*665 nm reading/615 nm reading. After normalization to untreated controls, the percent inhibition of the HTRF signal at each compound concentration was calculated. The plot of percent inhibition versus the log of compound concentration was fit with a 4-parameter dose response equation to calculate IC50 values.
# T1 sequence (P23458 875-1153 limits assumed): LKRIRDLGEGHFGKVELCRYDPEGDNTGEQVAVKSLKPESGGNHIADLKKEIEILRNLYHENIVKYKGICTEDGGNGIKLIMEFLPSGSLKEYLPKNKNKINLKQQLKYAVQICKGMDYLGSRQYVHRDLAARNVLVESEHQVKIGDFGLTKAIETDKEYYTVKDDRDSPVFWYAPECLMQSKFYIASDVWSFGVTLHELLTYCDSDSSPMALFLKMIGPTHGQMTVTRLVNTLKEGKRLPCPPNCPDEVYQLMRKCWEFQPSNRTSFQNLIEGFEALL
row,Structure (SMILES),IC50
1,"COC(=O)c1ccc(COC(=O)N2CCC[C@H]3[C@@H]2CCN3c2ncnc3[nH]ccc23)cc1 [Example 5, 4-(methoxycarbonyl)benzyl (3aS,7aS)-1-(7H-pyrrolo[2,3-d]pyrimidin-4-yl)octahydro-4H pyrrolo[3,2-b]pyridine-4-carboxylate]",100 to 1000 nM
2,"O=C(O)c1ccc(COC(=O)N2CCC[C@@H]3[C@H]2CCN3c2ncnc3[nH]ccc23)cc1 [Example 6, 4-[({[(3aR,7aR)-1-(7H-pyrrolo[2,3-d]pyrimidin-4-yl)octahydro-4H-pyrrolo[3,2-b]pyridine-4-yl]carbonyl}oxy)methyl]benzoic acid]",100 to 1000 nM
3,"CN(C)C(=O)c1ccc(COC(=O)N2CCC[C@@H]3[C@H]2CCN3c2ncnc3[nH]ccc23)cc1 [Example 7-1, 4-(dimethylcarbamoyl)benzyl (3aR,7aR)-1-(7H-pyrrolo[2,3-d]pyrimidin-4-yl)octahydro-4H-pyrrolo[3,2-b]pyrindine-4-carboxylate]",100 to 1000 nM
4,"CNC(=O)c1ccc(COC(=O)N2CCC[C@@H]3[C@H]2CCN3c2ncnc3[nH]ccc23)cc1 [Example 7-3, 4-(methylcarbamoyl)benzyl (3aR,7aR)-1-(7H-pyrrolo[2,3-d]pyrimidin-4-yl)octahydro-4H-pyrrolo[3,2-b]pyridine-4-carboxylate]",100 to 1000 nM
5,"CN(C)CCNC(=O)c1ccc(COC(=O)N2CCC[C@@H]3[C@H]2CCN3c2ncnc3[nH]ccc23)cc1 [Example 7-4, 4-{[2-(dimethylamino)ethyl]carbamoyl}benzyl (3aR,7aR)-1-(7H-pyrrolo[2,3-d]pyrimidin-4-yl)octahydro-4H-pyrrolo[3,2-b]pyridine-4-carboxylate]",100 to 1000 nM
6,"CN(C)CCN(C)C(=O)c1ccc(COC(=O)N2CCC[C@@H]3[C@H]2CCN3c2ncnc3[nH]ccc23)cc1 [Example 7-5, 4-{[2-(dimethylamino)ethyl](methyl)carbamoyl}benzyl (3aR,7aR)-1-(7H-pyrrolo[2,3-d]pyrimidin-4-yl)octahydro-4H-pyrrolo[3,2-b]pyridine-4-carboxylate]",100 to 1000 nM
7,"CC(C)(C)OC(=O)NCc1ccc(COC(=O)N2CCC[C@@H]3[C@H]2CCN3c2ncnc3[nH]ccc23)cc1 [Example 8-1, 4-{[(tert-butoxycarbonyl)amino]methyl}benzyl(3aR,7aR)-1-(7H-pyrrolo[2,3-d]pyrimidin-4-yl)octahydro-4-pyrrolo[3,2-b]pyridine-4-carboxylate]",100 to 1000 nM
8,"NCc1ccc(COC(=O)N2CCC[C@@H]3[C@H]2CCN3c2ncnc3[nH]ccc23)cc1 [Example 9, 4-(aminomethyl)benzyl (3aR,7aR)-1-(7H-pyrrolo[2,3-d]pyrimidin-4-yl)octahydro-4H-pyrrolo[3,2-b]pyridine-4-carboxylate]",100 to 1000 nM
9,"O=C(OCc1ccc(CO)cc1)N1CCC[C@@H]2[C@H]1CCN2c1ncnc2[nH]ccc12 [Example 10, 4-(hydroxymethyl)benzyl (3aR,7aR)-1-(7H-pyrrolo[2,3-d]pyrimidin-4-yl)octahydro-4H-pyrrolo[3,2-b]pyridine-4-carboxylate]",100 to 1000 nM
10,"CC(C)(C)OC(=O)N1CCC[C@@H]2[C@H]1CCN2c1ncnc2[nH]ccc12 [Example 11, tert-butyl (3aR,7aR)-1-(7H-pyrrolo[2,3-d]pyrimidin-4-yl)octahydro-4H-pyrrolo[3,2-b]pyridin-4-carboxylate]",100 to 1000 nM
11,"COC(=O)c1ccc(CCCN2CCC[C@@H]3[C@H]2CCN3c2ncnc3[nH]ccc23)cc1 [Example 13, methyl 4-{3-[(3aR,7aR)-1-(7H-pyrrolo[2,3-d]pyrimidin-4-yl)octahydro-4H-pyrrolo[3,2-b]pyridin-4-yl]propyl}benzoate]",100 to 1000 nM
12,"O=C(O)c1ccc(CCCN2CCC[C@@H]3[C@H]2CCN3c2ncnc3[nH]ccc23)cc1 [Example 14, 4-{3-[(3aR,7aR)-1-(7H-pyrrolo[2,3-d]pyrimidin-4-yl)octahydro-4H-pyrrolo[3,2-b]pyridin-4-yl]propyl}benzoic acid]",100 to 1000 nM
13,"O=C(CO)N1CCCC2C1CCN2c1ncnc2[nH]ccc12 [Example 17, (3aS,7aS and 3aR,7aR) 2-hydroxy-1-[1-(7H-pyrrolo[2,3-d]pyrimidin-4-yl)octahydro-4H-pyrrolo[3,2-b]pyridine-4-yl]ethanone]",100 to 1000 nM
14,"CO[C@](C(=O)N1CCC[C@@H]2[C@H]1CCN2c1ncnc2[nH]ccc12)(c1ccccc1)C(F)(F)F [Example 18, (2S)-3,3,3-trifluoro-2-methoxy-2-phenyl-1-[(3aR,7aR)-1-(7H-pyrrolo[2,3-d]pyrimidin-4-yl)octahydro-4H-pyrrolo[3,2-b]pyridine-4-yl]propan-1 one]",100 to 1000 nM
15,"CO[C@@](C(=O)N1CCC[C@@H]2[C@H]1CCN2c1ncnc2[nH]ccc12)(c1ccccc1)C(F)(F)F [Example 19, (2R)-3,3,3-trifluoro-2-methoxy-2-phenyl-1-[(3aR,7aR)-1-(7H-pyrrolo[2,3-d]pyrimidin-4-yl)octahydro-4H-pyrrolo[3,2-b]pyridine-4-yl]propan-1-one]",10 to 100 nM
16,"CC1CCN(Cc2ccccc2)C2CCN(c3ncnc4[nH]ccc34)C12 [Example 21, (3aS,7S,7aS and 3aR,7R,7aR) 4-(4-benzyl-7-methyloctahydro-1H-pyrrolo[3,2-b]pyridin-1-yl)-7H-pyrrolo[2,3-d]pyrimidine]",10 to 100 nM

# More lines, now with the values ahead:
row,IC50,Structure (SMILES)
1,1 to 10 nM,"O=C(OCCCc1ccccc1)N1CCC[C@@H]2[C@H]1CCN2c1ncnc2[nH]ccc12 [Example 3-47, 3-phenylpropyl (3aR,7aR)-1-(7H-pyrrolo[2,3-d]pyrimidin-4-yl)octahydro-4H-pyrrolo[3,2-b]pyridine-4-carboxylate]"
2,10 to 100 nM,"O=C(OCCCc1cccnc1)N1CCC[C@@H]2[C@H]1CCN2c1ncnc2[nH]ccc12 [Example 3-48, 3-pyridin-3-ylpropyl (3 aR,7 aR)-1-(7H-pyrrolo[2,3-d]pyrimidin-4-yl)octahydro-4H-pyrrolo[3,2-b]pyridine-4-carboxylate]"
3,1 to 10 nM,"COC(=O)c1ccc(COC(=O)N2CCC[C@@H]3[C@H]2CCN3c2ncnc3[nH]ccc23)cc1 [Example 4, 4-(methoxycarbonyl)benzyl (3aR,7aR)-1-(7H-pyrrolo[2,3-d]pyrimidin-4-yl)octahydro-4H-pyrrolo[3,2-b]pyridine-4-carboxylate]"
4,10 to 100 nM,"NC(=O)c1ccc(COC(=O)N2CCC[C@@H]3[C@H]2CCN3c2ncnc3[nH]ccc23)cc1 [Example 7-2, 4-carbamoylbenzyl (3aR,7aR)-1-(7H-pyrrolo[2,3-d]pyrimidin-4-yl)octahydro-4H-pyrrolo[3,2-b]pyridine-4-carboxylate]"
5,10 to 100 nM,"C[C@H](OC(=O)N1CCC[C@@H]2C1CCN2c1ncnc2[nH]ccc12)c1ccccc1 (stereo partly drawn) [Example 8-2, (1S)-1-phenylethyl (3aR,7 aR)-1-(7H-pyrrolo[2,3-d]pyrimidin-4-yl)octahydro-4-pyrrolo[3,2-b]pyridine-4-carboxylate]"
6,10 to 100 nM,"N#CCC(=O)N1CCCC2C1CCN2c1ncnc2[nH]ccc12 [Example 12, (3aS,7aS and 3aR,7aR) 3-oxo-3-[1-(7H-pyrrolo[2,3-d]pyrimidin-4-yl)octahydro-4H-pyrrolo[3,2-b]pyridin-4-yl]propanenitrile]"
7,10 to 100 nM,"Cc1cc2c(N3CCC4C3CCCN4C(=O)OCc3ccccc3)ncnc2[nH]1 [Example 15, (3aS,7aS and 3aR,7aR) benzyl 1-(6-methyl-7H-pyrrolo[2,3-d]pyrimidin-4-yl)octahydro-4H-pyrrolo[3,2-b]pyridine-4-carboxylate]"
8,10 to 100 nM,"O=C(OCc1ccccc1)N1CCC2C1CCCN2c1ncnc2[nH]ccc12 [Example 16, (3aS,7aS and 3aR,7aR) benzyl 4-(7H-pyrrolo[2,3-d]pyrimidin-4-yl)octahydro-1H-pyrrolo[3,2-b]pyridine-1-carboxylate]"

# Same assay, conditions: Jak1 activity, IC50 class, recombinant GST-tagged catalytic domain
row,Structure (SMILES),IC50
1,"CC1CCN(C(=O)OCc2ccccc2)C2CCN(c3ncnc4[nH]ccc34)C12 [Example 20, (3aS,7S,7aS and 3aR,7R,7aR) benzyl 7-methyl-1-(7H-pyrrolo[2,3-d]pyrimidin-4-yl)octahydro-4H-pyrrolo[3,2-b]pyridine-4-carboxylate]",10 to 100 nM

# Same assay, conditions: Representative IC50 values, recombinant GST-tagged catalytic domain, 31.8 μM ATP
row,Structure (SMILES),IC50
1,"CC1CCN(C(=O)OCc2ccccc2)C2CCN(c3ncnc4[nH]ccc34)C12 [Example 20, (3aS,7S,7aS and 3aR,7R,7aR) benzyl 7-methyl-1-(7H-pyrrolo[2,3-d]pyrimidin-4-yl)octahydro-4H-pyrrolo[3,2-b]pyridine-4-carboxylate]",12 nM

# Same assay, conditions: recombinant GST-tagged catalytic domain, 31.8 μM ATP, read-out: Representative IC50 values
row,IC50,Structure (SMILES)
1,2 nM,"COC(=O)c1ccc(COC(=O)N2CCC[C@@H]3[C@H]2CCN3c2ncnc3[nH]ccc23)cc1 [Example 4, 4-(methoxycarbonyl)benzyl (3aR,7aR)-1-(7H-pyrrolo[2,3-d]pyrimidin-4-yl)octahydro-4H-pyrrolo[3,2-b]pyridine-4-carboxylate]"
2,26 nM,"N#CCC(=O)N1CCCC2C1CCN2c1ncnc2[nH]ccc12 [Example 12, (3aS,7aS and 3aR,7aR) 3-oxo-3-[1-(7H-pyrrolo[2,3-d]pyrimidin-4-yl)octahydro-4H-pyrrolo[3,2-b]pyridin-4-yl]propanenitrile]"
3,169 nM,"COC(=O)c1ccc(CCCN2CCC[C@@H]3[C@H]2CCN3c2ncnc3[nH]ccc23)cc1 [Example 13, methyl 4-{3-[(3aR,7aR)-1-(7H-pyrrolo[2,3-d]pyrimidin-4-yl)octahydro-4H-pyrrolo[3,2-b]pyridin-4-yl]propyl}benzoate]"
4,31 nM,"O=C(OCc1ccccc1)N1CCC2C1CCCN2c1ncnc2[nH]ccc12 [Example 16, (3aS,7aS and 3aR,7aR) benzyl 4-(7H-pyrrolo[2,3-d]pyrimidin-4-yl)octahydro-1H-pyrrolo[3,2-b]pyridine-1-carboxylate]"

# From US8937077B2, “Bicyclic diamines as janus kinase inhibitors” (Merck Sharp & Dohme Corp., priority 2010, dated 2015)
